The record followed here is ChEMBL document CHEMBL1201862, “PubChem BioAssay data set” (2004).

Each structure is given as a SMILES string.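 1) Cells in 96-well plates. 2) Compound, 48 h, 5 concentrations. 3) Linear interpolation between surrounding doses. 4) Unreached endpoint = highest concentration. GI50 = concentration required for 50% inhibition of growth.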 Calls of active or inactive are those of the source. Rule as the data show it: active = GI50 up to about 1.1 µM and inactive = higher.

Common to all, as to assay: NCI anticancer screen, dose series, 48 h
Test [1] relates to A498.
In test [2] the test system is A549.
The test system of test [3] is ACHN.
The test system of test [4] is CAKI-1.
The test system of test [5] is DU-145.
The test system of test [6] is HCC 2998.
For test [7], the system named is HCT-15.
In test [8] the test system is IGROV-1.
For test [9], the system named is KM12.
The test system of test [10] is MCF7.
For test [11], the system named is NCI-H226.
Test [12] has as its system NCI-H23.
Test [13] relates to NCI-H460.
For test [14], the system named is NCI-H522.
In test [15] the test system is OVCAR-3.
The subject of test [16] is OVCAR-8.
Test [17] concerns SK-MEL-28.
The test system of test [18] is SNB-75.
Test [19] has as its system SW-620.
For test [20], the system named is U-251.

Take `CC(=O)OC/C=C\Cn1nc(Br)c(=O)[nH]c1=O`: the GI50 in test [1] is 19.9 µM (inactive); in test [2] it was 16.7 µM (inactive); in test [3] it was 7.87 µM (inactive); in test [4], 10.7 µM (inactive); in [5] it was 15.7 µM (inactive); in test [6], 15.7 µM (inactive). Further, the GI50 in test [7] was 13.1 µM; in [8], 15 µM (inactive); in test [9] it was 15.5 µM (inactive); in test [10] it was 11.5 µM (inactive); in test [11] it was 12.9 µM (inactive); in test [12], 15.1 µM (inactive). Besides, the GI50 in [13] is 13.2 µM (inactive); in [14] it was 2.81 µM (inactive); in test [15], 9.75 µM (inactive); in test [16] it was 14.9 µM (inactive); in [17] it was 16.4 µM (inactive); in [18], 15.1 µM (inactive). Besides, the GI50 in test [19] was 14.3 µM (inactive); in test [20], 10.5 µM (inactive).
As to `COC(=O)NCCc1n[nH]c2c1C(=O)C=C(N1CCOCC1)C2=O`, the GI50 in test [1], in test [2], in [3], in test [4], in test [5] and in [6] was > 100 µM (inactive) in each case. The GI50 in test [7] was above 100 µM; in test [8], > 100 µM (inactive); in [9], > 100 µM (inactive); in test [10], > 100 µM (inactive); in test [11], > 100 µM (inactive); in test [12], > 100 µM (inactive). In addition, the GI50 in test [13], in [14], in test [15], in test [16], in [17] and in test [18] was > 100 µM (inactive) throughout. Besides, the GI50 in test [19] and in test [20] was > 100 µM (inactive) throughout.
